Reference: patent US20240033233A1, “COMPOSITIONS AND METHODS FOR DELIVERING PHARMACEUTICAL AGENTS” (Arizona Board of Regents on Behalf of the University of …, priority 2020, published 2024)
Read-outs that look alike come from different tables or passages of the source.

Columns and labels:
[1] = Solubility of resatorvid in solvents (sonication, visual observation); assay type: physicochemical
Experimental: To determine solubility of resatorvid in a liquid formulation, a variety of solvents were tested: phosphate buffered saline, NS, ethanol, and PEG400, all with resatorvid at a concentration of 0.1% w/v and the solutions were sonicated for 1 hour at room temperature.
In addition, a solution of 5% w/v resatorvid in EtOH 140 proof was prepared (1 mL of ETOH and 50 mg of resatorvid). The solution was not translucent and became opaque/cloudy and there was still drug undissolved floating around.
Solutions were made with w/v TAK242+PEG600 and 5% w/v TAK242+100% Acetone. All three solutions were sonicated at room temperature for 1 hour. […] As the solution began to adjust to ambient temperature it started to solidify into a white thick substance almost like lard.
Further experiments were conducted using glycerol as the solvent. 0.0504 g of TAK-242 was weighed out to make a 5.04% w/v solution in 1 mL of glycerol, USP grade. […]. The solution was then sonicated for 60 minutes at 37° C. […] Images were taken at each to document the outcome.
A 5% w/v solution of resatorvid (50mg) and PEG 400 USP (1 mL) was prepared.
(§1) Seven platforms were analyzed for compatibility with TAK-242. The platforms were DermaBASE cream (cream and lotion), PENcream (cream), PEG-400 solution, PG solution, 1% w/v Carbomer 934P resin gel at pH˜7, 2% w/v Sodium hyaluronate gel/serum and 20% w/v Pluronic F127 gel. Solubility of TAK-242 was determined at concentrations ranging from 0.1-5% w/v using PBS (pH=7.41), 0.9% normal saline (NS), HPLC grade ethanol, PEG-400 and PG as solvents. The following step was to test if TAK-242 could be directly incorporated into the platforms mentioned above via non-sterile compounding to determine if the drug would need to be pre-dissolved before incorporation. Determination of how much volume of PEG-400 or PG could be incorporated into the creams and gels without losing consistency while maintaining homogeneity was examined; 1 g of base (cream or gel) was weighed out and was compounded with PEG-400 or PG (500 μL-1000 μL). Drug was then dissolved in appropriate determined volume of compatible solvent and sonicated for 60 minutes, then it was prepared via non-sterile compounding technique and formulations were examined for physical appearance (consistency, homogeneity, visible precipitation, phase separation, compatibility). The only formulation that was different was the Pluronic F127 as everything was mixed in as a liquid at 4° C. and the solution would then solidify at room temperature […] to create the gel which was then mixed thoroughly until homogenous.

[2] = Direct incorporation of resatorvid powder into cream bases (solubility/compatibility); assay type: physicochemical; settings: room temperature 30 minutes to 1 hour
Experimental: The solubility of the drug as powder was tested on both Dermabase cream as well as PENcream. […] It was a clear indication that the drug would have to be pre-dissolved in a solution before incorporating into the creams.
A variety of cream/lotion formulations were prepared. One gram of Dermabase cream and 0.1 gram of resatorvid were compounded together. […] One gram of PENcream was compounded with 0.1 grams of resatorvid. After compounding the mixture sat for 1 hour at room temp. […] PEG 400 USP and PEG 600 USP at volumes of 0.5 mL, 1 mL and 2 mL were used with 1 gram of cream base. […] PEG 600 USP changed the cream consistency to a lotion for each cream at added volumes 0.5 mL, 1 mL and 2 mL.
as §1

[3] = UV-Vis spectra of resatorvid solution in PEG400 on storage; assay type: physicochemical; settings: 0.1% w/v in PEG400, 4 days at 25° C.
Text: The solvents that were used were PEG400, EtOH 140 proof, PBS pH 7.4, Acetonitrile, NS, and MeOH. PEG600 was not used as it was too thick. At a concentration of 0.1% w/v it was observed that resatorvid was soluble in PEG400, acetonitrile and EtOH 140 proof and HPLC grade MeOH. 0.01% w/v solutions were also made for some samples to show an acceptable UV-Vis spectra. Resatorvid was not soluble in NS or PBS pH 7.4.
A Molecular Devices® SpectraMax® M3 Multi-Mode Microplate Reader (Sunnyvale, CA, USA) was used to perform UV/Vis spectroscopy. The wavelength range was 190 through 290 nm. A 0.1% w/v solution of TAK-242 in HPLC grade methanol, PEG-400, HPLC grade ethanol, HPLC grade acetonitrile, PBS (pH=7.4) and 0.85% w/v normal saline were made and analyzed under UV visible spectroscopy on a 96-wellplate black clear bottom.

[4] = In vitro oil-water partitioning coefficient (Log-P), 1-octanol/PBS; assay type: physicochemical; settings: for logP: 1-octanol/PBS; for partition coefficient (Log-P): range over pH 6.5, 7.1, 8.8
Experimental: TAK242 raw powder was weighed out (0.003 g) and placed in 2 dram ambered colored glass vials containing equal volumes (1.5 mL) of 1-octanol and PBS (1×, pH=7.4). Various solutions were made, and pH was adjusted and maintained at 6.5, 7.1, 8.8, adjustments were made using 0.1 M HCl solution and 0.1 M NaOH solution. […] The vials were rotated using a Barnstead/Thermolyne Labquake shaker (Dubuque, IA, USA) for 24 hours and then left undisturbed in a vertical position for an additional 24 hours for phase separation between the aqueous and non-aqueous layers. A sample of each layer was carefully withdrawn and then analyzed by a validated HPLC method as describe in the HPLC analysis section under methods.

[5] = system: human transformed keratinocytes (HaCaT); test: In vitro cell dose-response (resazurin viability) in 2-D culture, HaCaT; assay type: cell-based; settings: 72 h exposure
Experimental: (§2) The effects of raw TAK-242 powder on the viability of human representative human keratinocyte cell lines exposed to different concentrations were tested. HaCaT (a human transformed keratinocyte from histologically normal skin cell line) and NHEK (a primary normal epidermal keratinocyte cell line) were used as models of the human epidermis, which express keratinocytes in the stratum basale and then move up the final barrier layer of the skin, which is the stratum corneum. The HaCaT cells were grown in Dulbecco's modified Eagle's medium (DMEM), Optimized 1×, 10% (v/v) fetal bovine serum (FBS), and Pen-Strep (100 units/mL penicillin, 100 μg/mL) in a humidified incubator at 37° C. and 5% CO2. NHEK cells were grown NHEK- growth medium provided by MatTek (Ashland, MA, USA) in a humidified incubator at 37° C. and 5% CO2.
After confluence, HaCaT and NHEK cells were seeded in 96-black well plate at a concentration of 5,000 cells in 100 μL of media per well. After 48 hours, cells were then incubated for 48 h to allow attachment to the surface of the plates. Cells were then exposed to different concentrations of TAK-242. The drug solutions were prepared by dissolving raw TAK-242 powder in 5% v/v DMSO and DMEM media to make a solution at 1×. A volume of 100 μL of drug solution was added to each well. After 72 h of exposure and incubation at 37° C. and 5% CO2, 20 μL of 20 μM resazurin sodium salt were added to each well and incubated for 4 h. Fluorescence intensity of resofurin was detected at 544 nm (excitation) and 590 nm (emission) using the Molecular Devices® SpectraMax® M3 Multi-Mode Microplate Reader (Sunnyvale, CA, USA). The relative viability of the cells was calculated as followed by equation 1: […]

[6] = system: primary normal epidermal keratinocytes (NHEK); test: In vitro cell dose-response (resazurin viability) in 2-D culture, NHEK; assay type: cell-based, human; settings: 72 h exposure
Experimental: as §2
After confluence, HaCaT and NHEK cells were seeded in 96-black well plate at a concentration of 5,000 cells in 100 μL of media per well. After 48 hours, cells were then incubated for 48 h to allow attachment to the surface of the plates. Cells were then exposed to different concentrations of TAK-242. […] Fluorescence intensity of resofurin was detected at 544 nm (excitation) and 590 nm (emission) using the Molecular Devices® SpectraMax® M3 Multi-Mode Microplate Reader (Sunnyvale, CA, USA). The relative viability of the cells was calculated as followed by equation 1: […]

[7] = system: p-p38 signal in EpiDerms; test: p-p38 signal after topical resatorvid with or without solar simulated light; assay type: cell-based, human; settings: constitutive or UV-induced
[8] = cited from earlier work
[9] = cited from earlier work; remark: listed apart in the source
[10] = cited from earlier work; remark: listed apart in the source
[11] = system: UV-induced AP-1 activation; settings: acetone solution of resatorvid, mouse epidermis; cited from earlier work
[12] = series of increasing concentrations

## CCOC(=O)C1=CCCC[C@H]1S(=O)(=O)Nc1ccc(F)cc1Cl [Resatorvid]
[1]; 0.1% w/v in EtOH 140 proof
  solubility: soluble
[1]; 0.1% w/v in EtOH 140 proof, listed as TAK-242
  solubility: completely dissolved
[1]; 0.1% w/v in HPLC grade MeOH
  solubility: soluble
[1]; 0.1% w/v in NS (normal saline)
  solubility: not soluble
[1]; 0.1% w/v in NS (normal saline), listed as TAK-242
  solubility: failed to dissolve
[1]; 0.1% w/v in PBS pH 7.4
  solubility: not soluble
[1]; 0.1% w/v in PBS pH 7.4, listed as TAK-242
  solubility: failed to dissolve
[1]; 0.1% w/v in PEG400
  solubility: soluble
[1]; 0.1% w/v in acetonitrile
  solubility: soluble
[1]; 5% w/v in 100% acetone, sonicated at room temperature 1 hour
  solubility: dissolved the drug completely
[1]; 5% w/v in EtOH 140 proof
  solubility: only partially dissolved
[1]; 5% w/v in PEG 400 USP
  solubility: no signs of undissolved drug
[1]; glycerol USP, 5.04%, 2.5%, 1.25% and 0.625% w/v, sonicated 60 minutes at 37° C.
  solubility: did not dissolve
[1]; w/v in PEG600 (concentration not given), sonicated at room temperature 1 hour
  solubility: dissolved the drug completely
[2]; Dermabase cream
  solubility of drug powder in cream: unable to dissolve in the cream
[2]; Dermabase cream, listed as Resatorvid (TAK-242)
  solubility of drug powder in cream: undissolved and incompatible with creams
[2]; PENcream
  solubility of drug powder in cream: undissolved drug
[2]; PENcream, listed as Resatorvid (TAK-242)
  solubility of drug powder in cream: undissolved and incompatible with creams
[3]
  stability of drug in solution (UV-VIS spectra): no changes in the drug
[4]; as quoted, conditions not stated, read-out: log P
  logP: 1.54
[4]; pH 6.5, At 35° C., pH = 6.5, read-out: Experimental (Log P) Average ± SD
  logP: 1.65 ± 0.029
[4]; pH 6.5, At Room temperature/ambient temperature, pH = 6.5, read-out: Experimental (Log P) Average ± SD
  logP: 1.58 ± 0.019
[4]; pH 7.1, At 35° C., pH = 7.1, read-out: Experimental (Log P) Avg. Log-P ± SD
  logP: 1.68 ± 0.013
[4]; pH 7.1, At Room temperature/ambient temperature, pH = 7.1, read-out: Experimental (Log P) Avg. Log-P ± SD
  logP: 1.54 ± 0.149
[4]; pH 8.8, At 35° C., pH = 8.8, read-out: Experimental (Log P) Avg. Log-P ± SD
  logP: 0.94 ± 0.023
[4]; pH 8.8, At Room temperature/ambient temperature, pH = 8.8, read-out: Experimental (Log P) Avg. Log-P ± SD
  logP: 0.88 ± 0.06
[4]; at 35° C.
  partition coefficient (Log-P): 0.94-1.68
[4]; at 37° C.
  partition coefficient (Log-P): 0.88-1.58
[5]; 1000 μM
  % cell viability: ~70%
[5]; all concentrations except 1000 μM
  % cell viability: ~100%
[5]; [12]
  toxicity: did not show any significant toxicity
[6]; all concentrations
  % cell viability: ~100%
[6]; [12]
  toxicity: did not show any significant toxicity
[7]
  p-p38 signal: potently blocked
[8]; in DMSO
  reported solubility: 10 mg/mL
[8]; in EtOH
  reported solubility: 20 mg/mL
[8]; in H2O
  reported solubility: sparingly soluble
[9]
  reported Log P: 2.53
[10]
  experimentally determined pKa reported: 8.0-8.1
[11]
  UV-induced AP-1 activation: blocked
